The text below walks through data of patent publication USRE42890E1, “Furazanobenzimidazoles” (Basilea Pharmaceutica AG, priority 2003, dated 2011).

The first assay concerns HeLa. Description: MTS proliferation assay, HeLa. Particulars: 72 h incubation, read-out: MTS proliferation assay IC 50 HeLa. Format: cell-based, human. The method in brief:
(§1)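 Seed cells (1.5*10^3-10^4/well) 24 h ahead; add compound, final 10/3/1/0.3 μM; incubate 72 h, 37 °C, 7.5% CO2; MTS 3 h; read A492.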
Background: Tetrazolium assays rely on reduction of a dye to a coloured formazan, in cell work by metabolically active cells.
As to `N#CCCNc1nonc1-c1nc2ccccc2n1COc1ccc(Br)cc1` [Example 94], the IC50 was in the range of 10 to 100 nM.
With `Nc1nonc1-c1nc2ccccc2n1CC(=O)c1ccccn1` [Example 59], the IC50 lay within 100 to 1000 nM.

The subject of a further assay is HT1080. Description: MTS proliferation assay, HT1080. Format: cell-based, human. The conditions noted are these: HT1080, 72 h incubation; read-out: MTS proliferation assay IC 50 HT1080. The method in brief: as §1
With `N#CCCNc1nonc1-c1nc2ccccc2n1COc1ccc(Br)cc1` [Example 94], the IC50 was 10 to 100 nM.
As for `Nc1nonc1-c1nc2ccccc2n1CC(=O)c1ccccn1` [Example 59], the IC50 was 100 to 1000 nM.

Another assay has as its system Jily. Description: MTS proliferation assay, Jily. Format: cell-based. Particulars: 72 h incubation, read-out: MTS proliferation assay IC 50 Jily. In a few lines: (§2)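 RPMI-1640 + 5% or 10% FCS; seeded 24 h pre-dose; cpd final 10/3/1/0.3 μM, max 5% DMSO in added volume; 72 h, 37° C, 7.5% CO2; MTS 3 h; A492.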
On to `N#CCCNc1nonc1-c1nc2ccccc2n1COc1ccc(Br)cc1` [Example 94], for which the IC50 was 10 to 100 nM.
For `Nc1nonc1-c1nc2ccccc2n1CC(=O)c1ccccn1` [Example 59], the IC50 is 100 to 1000 nM.

A further assay deals with Jurkat. Description: MTS proliferation assay, Jurkat. Format: cell-based, human. Particulars: 72 h incubation, read-out: MTS proliferation assay IC 50 Jurkat. In a few lines:
as §1
Take `N#CCCNc1nonc1-c1nc2ccccc2n1COc1ccc(Br)cc1` [Example 94]: the IC50 fell in the range of 10 to 100 nM.
Take `Nc1nonc1-c1nc2ccccc2n1CC(=O)c1ccccn1` [Example 59]: the IC50 was 100 to 1000 nM.

In the next assay the test system is MRC5. Description: MTS proliferation assay, MRC5. The conditions noted are these: MRC5, 72 h incubation; read-out: MTS proliferation assay IC 50 MRC5. Format: cell-based. In a few lines:
as §2
As for `N#CCCNc1nonc1-c1nc2ccccc2n1COc1ccc(Br)cc1` [Example 94], the IC50 is 100 to 1000 nM.
On the same count and under the same terms, to `Nc1nonc1-c1nc2ccccc2n1CC(=O)c1ccccn1` [Example 59] belongs 100 to 1000 nM.

The next assay has as its system adherent cells or suspension cells. Description: Hoechst 33342 nuclear staining (fraction of apoptotic nuclei). Format: cell-based. The arrangement: key: 0 relating to no activity; 1 relating to weak activity comprising less than 70% of the cells; score 2 relating to strong activity comprising more than 70% of the cells. The conditions noted are these: H460, conc 0.01 μm.
On to `N#CCCNc1nonc1-c1nc2ccccc2n1COc1ccc(Br)cc1` [Example 94], for which the “Hoechst 33342 nuclear staining score” value turned out to be 0.
Take `Nc1nonc1-c1nc2ccccc2n1CC(=O)c1ccccn1` [Example 59]: the “Hoechst 33342 nuclear staining score” value came out at 0.

Staying with this assay, now noted: H460, conc 0.1 μm.
On to `N#CCCNc1nonc1-c1nc2ccccc2n1COc1ccc(Br)cc1` [Example 94], for which the “Hoechst 33342 nuclear staining score” value was 2 (score 2 relating to strong activity comprising more than 70% of the cells).
In the case of `Nc1nonc1-c1nc2ccccc2n1CC(=O)c1ccccn1` [Example 59], the “Hoechst 33342 nuclear staining score” value is given as 0.

The assay is the same for the next values; noted with them: H460, conc 1 μm.
For `N#CCCNc1nonc1-c1nc2ccccc2n1COc1ccc(Br)cc1` [Example 94], the “Hoechst 33342 nuclear staining score” value was 2 (score 2 relating to strong activity comprising more than 70% of the cells).
For the compound `Nc1nonc1-c1nc2ccccc2n1CC(=O)c1ccccn1` [Example 59], the “Hoechst 33342 nuclear staining score” value is on record as 2 (score 2 relating to strong activity comprising more than 70% of the cells).

The same assay, now with this note: HeLa, conc 0.01 μm.
`N#CCCNc1nonc1-c1nc2ccccc2n1COc1ccc(Br)cc1` [Example 94]: the “Hoechst 33342 nuclear staining score” value was 0.
Turning to `Nc1nonc1-c1nc2ccccc2n1CC(=O)c1ccccn1` [Example 59], the “Hoechst 33342 nuclear staining score” value is 0.

Still in this assay, the particulars now being: HeLa, conc 0.1 μm.
`N#CCCNc1nonc1-c1nc2ccccc2n1COc1ccc(Br)cc1` [Example 94]: the “Hoechst 33342 nuclear staining score” value is listed as 1 (1 relating to weak activity comprising less than 70% of the cells).
On the same count and under the same terms, to `Nc1nonc1-c1nc2ccccc2n1CC(=O)c1ccccn1` [Example 59] belongs 0.

Staying with this assay, now noted: HeLa, conc 1 μm.
Regarding `N#CCCNc1nonc1-c1nc2ccccc2n1COc1ccc(Br)cc1` [Example 94], the “Hoechst 33342 nuclear staining score” value is 2 (score 2 relating to strong activity comprising more than 70% of the cells).
Take `Nc1nonc1-c1nc2ccccc2n1CC(=O)c1ccccn1` [Example 59]: the “Hoechst 33342 nuclear staining score” value is given as 2 (score 2 relating to strong activity comprising more than 70% of the cells).

The assay is the same for the next values; noted with them: Jily, conc 0.01 μm.
As for `N#CCCNc1nonc1-c1nc2ccccc2n1COc1ccc(Br)cc1` [Example 94], the “Hoechst 33342 nuclear staining score” value came out at 0.
Regarding `Nc1nonc1-c1nc2ccccc2n1CC(=O)c1ccccn1` [Example 59], the “Hoechst 33342 nuclear staining score” value is listed as 0.

The same assay, now with this note: Jily, conc 0.1 μm.
Take `N#CCCNc1nonc1-c1nc2ccccc2n1COc1ccc(Br)cc1` [Example 94]: the “Hoechst 33342 nuclear staining score” value is recorded as 2 (score 2 relating to strong activity comprising more than 70% of the cells).
As for `Nc1nonc1-c1nc2ccccc2n1CC(=O)c1ccccn1` [Example 59], the “Hoechst 33342 nuclear staining score” value was 0.

Staying with this assay, now noted: Jily, conc 1 μm.
With `N#CCCNc1nonc1-c1nc2ccccc2n1COc1ccc(Br)cc1` [Example 94], the “Hoechst 33342 nuclear staining score” value is 2 (score 2 relating to strong activity comprising more than 70% of the cells).
On to `Nc1nonc1-c1nc2ccccc2n1CC(=O)c1ccccn1` [Example 59], for which the “Hoechst 33342 nuclear staining score” value is listed as 2 (score 2 relating to strong activity comprising more than 70% of the cells).

Still in this assay, the particulars now being: Jurkat, conc 0.01 μm.
Consider `N#CCCNc1nonc1-c1nc2ccccc2n1COc1ccc(Br)cc1` [Example 94], for which the “Hoechst 33342 nuclear staining score” value stood at 0.
As for `Nc1nonc1-c1nc2ccccc2n1CC(=O)c1ccccn1` [Example 59], the “Hoechst 33342 nuclear staining score” value amounted to 0.

Staying with this assay, now noted: Jurkat, conc 0.1 μm.
Turning to `N#CCCNc1nonc1-c1nc2ccccc2n1COc1ccc(Br)cc1` [Example 94], the “Hoechst 33342 nuclear staining score” value was 2 (score 2 relating to strong activity comprising more than 70% of the cells).
On the same count and under the same terms, under `Nc1nonc1-c1nc2ccccc2n1CC(=O)c1ccccn1` [Example 59] stands 0.

The same assay, now with this note: Jurkat, conc 1 μm.
For the compound `N#CCCNc1nonc1-c1nc2ccccc2n1COc1ccc(Br)cc1` [Example 94], the “Hoechst 33342 nuclear staining score” value is given as 2 (score 2 relating to strong activity comprising more than 70% of the cells).
The same measure, in the same setting: under `Nc1nonc1-c1nc2ccccc2n1CC(=O)c1ccccn1` [Example 59] stands 2 (score 2 relating to strong activity comprising more than 70% of the cells).

Staying with this assay, now noted: MRC5, conc 0.01 μm.
As to `N#CCCNc1nonc1-c1nc2ccccc2n1COc1ccc(Br)cc1` [Example 94], the “Hoechst 33342 nuclear staining score” value came to 0.
With `Nc1nonc1-c1nc2ccccc2n1CC(=O)c1ccccn1` [Example 59], the “Hoechst 33342 nuclear staining score” value amounted to 0.

Staying with this assay, now noted: MRC5, conc 0.1 μm.
As for `N#CCCNc1nonc1-c1nc2ccccc2n1COc1ccc(Br)cc1` [Example 94], the “Hoechst 33342 nuclear staining score” value is 0.
Same read-out and setting: under `Nc1nonc1-c1nc2ccccc2n1CC(=O)c1ccccn1` [Example 59] stands 0.

Staying with this assay, now noted: MRC5, conc 1 μm.
Turning to `N#CCCNc1nonc1-c1nc2ccccc2n1COc1ccc(Br)cc1` [Example 94], the “Hoechst 33342 nuclear staining score” value is 2 (score 2 relating to strong activity comprising more than 70% of the cells).
In the case of `Nc1nonc1-c1nc2ccccc2n1CC(=O)c1ccccn1` [Example 59], the “Hoechst 33342 nuclear staining score” value is recorded as 2 (score 2 relating to strong activity comprising more than 70% of the cells).

The same assay, now with this note: PBLs, conc 0.01 μm.
Take `N#CCCNc1nonc1-c1nc2ccccc2n1COc1ccc(Br)cc1` [Example 94]: the “Hoechst 33342 nuclear staining score” value turned out to be 0.
Consider `Nc1nonc1-c1nc2ccccc2n1CC(=O)c1ccccn1` [Example 59], for which the “Hoechst 33342 nuclear staining score” value is recorded as 0.

Staying with this assay, now noted: PBLs, conc 0.1 μm.
With `N#CCCNc1nonc1-c1nc2ccccc2n1COc1ccc(Br)cc1` [Example 94], the “Hoechst 33342 nuclear staining score” value was 0.
Turning to `Nc1nonc1-c1nc2ccccc2n1CC(=O)c1ccccn1` [Example 59], the “Hoechst 33342 nuclear staining score” value came out at 0.

Still in this assay, the particulars now being: PBLs, conc 1 μm.
For `N#CCCNc1nonc1-c1nc2ccccc2n1COc1ccc(Br)cc1` [Example 94], the “Hoechst 33342 nuclear staining score” value was found to be 0.
Still for that read-out and setting: to `Nc1nonc1-c1nc2ccccc2n1CC(=O)c1ccccn1` [Example 59] belongs 0.
